For experiment [1], the system named is 11 human cyclins (D1/2/3, E1/2, A1/2, B1/2/3 and F). The experiment in a line: SIMBA, cyclin binding and specificity across the cyclin panel. The experiment is classed as cell-based. The note with it: result in words; for cyclin specificity in SIMBA: 13-mer peptides centered on P0; for cyclin binding in the tiled library SIMBA screen: tiled 16-mer peptides.
The test system of the next experiment is human cyclin A2. The experiment in a line: Proteomic peptide phage display. The experiment is classed as binding. The conditions noted are these: result in words; HD2 library of 16-mer peptides, four selection rounds.
A further experiment relates to human cyclin B1. The experiment can be described thus: Proteomic peptide phage display. The experiment is classed as binding. The conditions noted are these: result in words; HD2 library of 16-mer peptides, four selection rounds.

As to DDIVSKLVFDFVE [DBF4], the “cyclin specificity in SIMBA” value in experiment [1] is listed as “bound cyclin B1 specifically”. In the case of HELFQRLDFDNDG [DNAH7], the “cyclin specificity in SIMBA” value in experiment [1] is listed as “bound cyclin B1 specifically”. For the sequence KAIRKLHFEDE [INSM1], in experiment [1], the “cyclin specificity in SIMBA” value is listed as “bind to members of all four families” and the “cyclin binding in the tiled library SIMBA screen” value is “cyclin D1-binding motif”. For the sequence PPARRRLRLSVDE [CDT1], the “cyclin specificity in SIMBA” value in experiment [1] was “bound preferentially to cyclin A2”.

Take PRARKRLELGNLG [ORC1]: the “cyclin specificity in SIMBA” value in experiment [1] was “bound preferentially to cyclin A2”; in experiment [1] (listed as ORC1 RxL), “cyclin A-specific”. In the case of QLRRQLSFSED [MICAL3], the “cyclin binding in the tiled library SIMBA screen” value in experiment [1] is “strong B1-binding motif”. Take SKACRRLFGPVDS [CDKN1A (p21)]: in experiment [1], the “cyclin specificity in SIMBA” value is “bound all cyclin types except B”. As for SLVVGKLSFDSSP [CDC42EP1], the “cyclin specificity in SIMBA” value in experiment [1] is on record as “bound cyclin B1 specifically”. Regarding SNARRSLNFGGST [SCAPER], in experiment [1], the “cyclin specificity in SIMBA” value was “bound preferentially to cyclin A2”. For the sequence VKTKKRLNFDDKV [CENPC], in experiment [1], the “cyclin specificity in SIMBA” value is on record as “bound preferentially to cyclin A2”.

Consider VSAVQKLDFSDTMVQQ [PKN2 peptide], for which the “enrichment in ProP-PD selection, cyclin A2” value with human cyclin A2 is given as “dominated”. Further, in the experiment on human cyclin B1, the “enrichment in ProP-PD selection, cyclin B1” value is listed as “dominated”. For the sequence YKVKRRLVFGADD [MuHV-1 M97], the “cyclin specificity in SIMBA” value in experiment [1] is given as “bind to members of all four families”.
